Reference: the kinase profiling compilation of Christmann-Franck et al. (2016)

What was measured:
Details in all cases: compound 10.0 µM
MAPK8 (human) = MAPK8 (human) (UniProt P45983)
PTK2B (human) = PTK2B (human) (UniProt Q14289)
[1] = target: JAK1 JH1 catalytic (human) (UniProt P23458)
MAPKAPK2 (human) = MAPKAPK2 (human) (UniProt P49137)
CLK3 (human) = CLK3 (human) (UniProt P49761)
MARK1 (human) = MARK1 (human) (UniProt Q9P0L2)
SBK1 (human) = SBK1 (human) (UniProt Q52WX2)
MAPK6 (human) = MAPK6 (human) (UniProt Q16659)
NIM1 (human) = NIM1 (human) (UniProt Q8IY84)
Chain of NIM1 (human) (Q8IY84 whole entry, looked up): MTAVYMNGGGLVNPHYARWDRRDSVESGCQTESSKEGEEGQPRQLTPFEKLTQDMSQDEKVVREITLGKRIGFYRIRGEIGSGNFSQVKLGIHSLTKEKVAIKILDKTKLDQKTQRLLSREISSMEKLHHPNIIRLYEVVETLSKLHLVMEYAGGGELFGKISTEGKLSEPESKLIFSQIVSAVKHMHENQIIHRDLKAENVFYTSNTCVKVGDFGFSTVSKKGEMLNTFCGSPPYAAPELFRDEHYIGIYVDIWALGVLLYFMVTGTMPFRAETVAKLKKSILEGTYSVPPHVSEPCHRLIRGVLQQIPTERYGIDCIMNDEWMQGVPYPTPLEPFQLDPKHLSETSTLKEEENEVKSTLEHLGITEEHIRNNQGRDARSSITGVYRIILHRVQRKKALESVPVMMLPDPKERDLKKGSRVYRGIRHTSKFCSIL

STK25 (human) = STK25 (human) (UniProt O00506)
CDC42BPA (human) = CDC42BPA (human) (UniProt Q5VT25)
WEE1 (human) = WEE1 (human) (UniProt P30291)
MARK3 (human) = MARK3 (human) (UniProt P27448)
Chain of MARK3 (human) (P27448 whole entry, looked up): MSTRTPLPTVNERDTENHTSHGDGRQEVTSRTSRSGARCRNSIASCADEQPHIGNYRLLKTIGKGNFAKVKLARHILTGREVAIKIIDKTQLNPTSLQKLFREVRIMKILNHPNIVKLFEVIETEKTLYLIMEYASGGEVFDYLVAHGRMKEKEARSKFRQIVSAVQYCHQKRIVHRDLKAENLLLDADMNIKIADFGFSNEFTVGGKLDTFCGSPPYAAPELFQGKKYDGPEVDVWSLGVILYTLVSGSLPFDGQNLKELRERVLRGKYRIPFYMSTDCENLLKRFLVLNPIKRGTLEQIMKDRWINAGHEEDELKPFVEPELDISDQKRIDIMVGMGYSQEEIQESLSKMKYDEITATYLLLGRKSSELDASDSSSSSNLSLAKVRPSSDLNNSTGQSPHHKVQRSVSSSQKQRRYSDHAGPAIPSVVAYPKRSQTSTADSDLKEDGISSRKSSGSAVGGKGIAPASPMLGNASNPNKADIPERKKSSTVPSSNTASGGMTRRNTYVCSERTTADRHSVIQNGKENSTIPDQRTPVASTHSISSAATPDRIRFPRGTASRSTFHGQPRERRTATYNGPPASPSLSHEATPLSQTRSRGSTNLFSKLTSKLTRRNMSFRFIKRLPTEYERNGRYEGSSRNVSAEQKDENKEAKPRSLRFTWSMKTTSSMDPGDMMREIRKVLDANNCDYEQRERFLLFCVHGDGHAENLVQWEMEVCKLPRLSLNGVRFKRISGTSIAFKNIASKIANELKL

DYRK2 (human) = DYRK2 (human) (UniProt Q92630)
ACVR1 (human) = ACVR1 (human) (UniProt Q04771)
CHEK2 (human) = CHEK2 (human) (UniProt O96017)
LATS1 (human) = LATS1 (human) (UniProt O95835)
HIPK4 (human) = HIPK4 (human) (UniProt Q8NE63)
MAP3K13 (human) = MAP3K13 (human) (UniProt O43283)
EPHB1 (human) = EPHB1 (human) (UniProt P54762)
MINK1 (human) = MINK1 (human) (UniProt Q8N4C8)
MAP3K7 (human) = MAP3K7 (human) (UniProt O43318)
OXSR1 (human) = OXSR1 (human) (UniProt O95747)
CDK4 CCND3 (human) = CDK4 CCND3 (human) (UniProt P11802+P30281)
MAP3K1 (human) = MAP3K1 (human) (UniProt Q13233)
CAMK2G (human) = CAMK2G (human) (UniProt Q13555)
MAPK7 (human) = MAPK7 (human) (UniProt Q13164)
[2] = system: RET (human), P07949 [V804M]
MAP2K2 (human) = MAP2K2 (human) (UniProt P36507)
IGF1R (human) = IGF1R (human) (UniProt P08069)
TNK1 (human) = TNK1 (human) (UniProt Q13470)
DAPK1 (human) = DAPK1 (human) (UniProt P53355)
Chain of DAPK1 (human) (P53355 whole entry, looked up): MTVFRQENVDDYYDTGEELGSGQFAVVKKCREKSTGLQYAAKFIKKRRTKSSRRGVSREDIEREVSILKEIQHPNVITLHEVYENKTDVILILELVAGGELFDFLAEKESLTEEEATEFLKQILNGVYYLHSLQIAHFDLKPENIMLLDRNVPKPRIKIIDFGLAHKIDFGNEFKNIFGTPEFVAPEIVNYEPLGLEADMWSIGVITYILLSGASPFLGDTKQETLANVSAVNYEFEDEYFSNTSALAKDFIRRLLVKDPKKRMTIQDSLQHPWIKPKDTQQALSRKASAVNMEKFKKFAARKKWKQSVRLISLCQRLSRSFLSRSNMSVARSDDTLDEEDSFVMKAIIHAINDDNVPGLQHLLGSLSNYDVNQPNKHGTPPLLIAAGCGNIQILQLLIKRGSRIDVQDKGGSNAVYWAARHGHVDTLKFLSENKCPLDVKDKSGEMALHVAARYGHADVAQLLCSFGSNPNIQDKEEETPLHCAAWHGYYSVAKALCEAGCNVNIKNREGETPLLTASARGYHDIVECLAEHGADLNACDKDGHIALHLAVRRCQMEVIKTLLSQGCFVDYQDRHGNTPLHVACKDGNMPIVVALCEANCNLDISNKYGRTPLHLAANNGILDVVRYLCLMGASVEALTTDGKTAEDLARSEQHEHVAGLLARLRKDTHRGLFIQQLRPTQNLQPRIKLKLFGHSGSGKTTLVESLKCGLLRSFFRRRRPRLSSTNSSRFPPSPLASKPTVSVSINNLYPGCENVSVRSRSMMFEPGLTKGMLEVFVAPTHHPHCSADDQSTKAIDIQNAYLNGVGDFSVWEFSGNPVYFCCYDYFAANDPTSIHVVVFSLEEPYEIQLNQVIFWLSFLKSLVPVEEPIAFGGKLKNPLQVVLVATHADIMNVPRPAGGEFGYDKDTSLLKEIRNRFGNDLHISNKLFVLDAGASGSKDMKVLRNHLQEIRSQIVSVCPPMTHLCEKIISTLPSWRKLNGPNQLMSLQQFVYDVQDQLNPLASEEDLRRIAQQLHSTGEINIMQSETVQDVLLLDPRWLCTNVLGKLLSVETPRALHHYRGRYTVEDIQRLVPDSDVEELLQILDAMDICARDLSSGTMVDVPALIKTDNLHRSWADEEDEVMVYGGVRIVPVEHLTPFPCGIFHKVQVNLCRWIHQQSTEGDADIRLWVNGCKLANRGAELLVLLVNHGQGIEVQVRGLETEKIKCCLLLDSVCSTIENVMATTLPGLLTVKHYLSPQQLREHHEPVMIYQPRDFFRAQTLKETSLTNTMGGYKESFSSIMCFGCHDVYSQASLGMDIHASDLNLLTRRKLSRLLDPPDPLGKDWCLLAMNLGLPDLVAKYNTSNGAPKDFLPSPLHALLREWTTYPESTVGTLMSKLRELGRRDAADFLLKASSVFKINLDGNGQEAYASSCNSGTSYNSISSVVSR

MARK2 (human) = MARK2 (human) (UniProt Q7KZI7)
IRAK1 (human) = IRAK1 (human) (UniProt P51617)
ULK3 (human) = ULK3 (human) (UniProt Q6PHR2)
MAP4K2 (human) = MAP4K2 (human) (UniProt Q12851)
BRSK1 (human) = BRSK1 (human) (UniProt Q8TDC3)
PRKCI (human) = PRKCI (human) (UniProt P41743)
EPHA6 (human) = EPHA6 (human) (UniProt Q9UF33)
PRKCD (human) = PRKCD (human) (UniProt Q05655)
EPHA5 (human) = EPHA5 (human) (UniProt P54756)

Chain of JAK1 JH1 catalytic (human) (P23458 whole entry, looked up): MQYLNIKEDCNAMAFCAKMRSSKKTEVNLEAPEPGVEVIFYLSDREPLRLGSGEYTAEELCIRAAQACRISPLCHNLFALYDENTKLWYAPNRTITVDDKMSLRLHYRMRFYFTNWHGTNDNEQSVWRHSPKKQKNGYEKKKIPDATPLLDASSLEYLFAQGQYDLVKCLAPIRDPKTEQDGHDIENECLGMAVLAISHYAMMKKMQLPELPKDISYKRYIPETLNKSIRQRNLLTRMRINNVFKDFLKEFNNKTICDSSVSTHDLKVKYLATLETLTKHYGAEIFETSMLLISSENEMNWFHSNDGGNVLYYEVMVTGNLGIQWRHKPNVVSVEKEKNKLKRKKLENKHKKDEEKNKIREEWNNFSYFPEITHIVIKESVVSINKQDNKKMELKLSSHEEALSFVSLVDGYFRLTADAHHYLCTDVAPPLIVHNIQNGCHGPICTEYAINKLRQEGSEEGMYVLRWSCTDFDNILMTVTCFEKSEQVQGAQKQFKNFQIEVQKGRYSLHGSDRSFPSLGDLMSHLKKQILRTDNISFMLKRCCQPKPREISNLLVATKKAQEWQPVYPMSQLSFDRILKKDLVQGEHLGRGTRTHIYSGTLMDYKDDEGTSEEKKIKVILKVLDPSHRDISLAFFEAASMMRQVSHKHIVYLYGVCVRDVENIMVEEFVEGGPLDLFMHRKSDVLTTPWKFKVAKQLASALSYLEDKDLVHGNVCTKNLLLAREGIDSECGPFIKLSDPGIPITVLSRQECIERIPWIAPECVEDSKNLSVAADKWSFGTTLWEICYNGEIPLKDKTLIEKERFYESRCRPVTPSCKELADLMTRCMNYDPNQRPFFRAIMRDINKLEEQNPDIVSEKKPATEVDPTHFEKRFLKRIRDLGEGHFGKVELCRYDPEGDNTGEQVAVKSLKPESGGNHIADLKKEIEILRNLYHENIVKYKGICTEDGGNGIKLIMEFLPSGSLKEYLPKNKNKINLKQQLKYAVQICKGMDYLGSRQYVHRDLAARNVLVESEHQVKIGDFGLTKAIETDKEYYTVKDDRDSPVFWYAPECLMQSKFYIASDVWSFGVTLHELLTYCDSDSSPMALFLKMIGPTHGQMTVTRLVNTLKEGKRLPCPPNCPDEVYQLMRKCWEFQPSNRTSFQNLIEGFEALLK
Chain of PTK2B (human) (Q14289 whole entry, looked up): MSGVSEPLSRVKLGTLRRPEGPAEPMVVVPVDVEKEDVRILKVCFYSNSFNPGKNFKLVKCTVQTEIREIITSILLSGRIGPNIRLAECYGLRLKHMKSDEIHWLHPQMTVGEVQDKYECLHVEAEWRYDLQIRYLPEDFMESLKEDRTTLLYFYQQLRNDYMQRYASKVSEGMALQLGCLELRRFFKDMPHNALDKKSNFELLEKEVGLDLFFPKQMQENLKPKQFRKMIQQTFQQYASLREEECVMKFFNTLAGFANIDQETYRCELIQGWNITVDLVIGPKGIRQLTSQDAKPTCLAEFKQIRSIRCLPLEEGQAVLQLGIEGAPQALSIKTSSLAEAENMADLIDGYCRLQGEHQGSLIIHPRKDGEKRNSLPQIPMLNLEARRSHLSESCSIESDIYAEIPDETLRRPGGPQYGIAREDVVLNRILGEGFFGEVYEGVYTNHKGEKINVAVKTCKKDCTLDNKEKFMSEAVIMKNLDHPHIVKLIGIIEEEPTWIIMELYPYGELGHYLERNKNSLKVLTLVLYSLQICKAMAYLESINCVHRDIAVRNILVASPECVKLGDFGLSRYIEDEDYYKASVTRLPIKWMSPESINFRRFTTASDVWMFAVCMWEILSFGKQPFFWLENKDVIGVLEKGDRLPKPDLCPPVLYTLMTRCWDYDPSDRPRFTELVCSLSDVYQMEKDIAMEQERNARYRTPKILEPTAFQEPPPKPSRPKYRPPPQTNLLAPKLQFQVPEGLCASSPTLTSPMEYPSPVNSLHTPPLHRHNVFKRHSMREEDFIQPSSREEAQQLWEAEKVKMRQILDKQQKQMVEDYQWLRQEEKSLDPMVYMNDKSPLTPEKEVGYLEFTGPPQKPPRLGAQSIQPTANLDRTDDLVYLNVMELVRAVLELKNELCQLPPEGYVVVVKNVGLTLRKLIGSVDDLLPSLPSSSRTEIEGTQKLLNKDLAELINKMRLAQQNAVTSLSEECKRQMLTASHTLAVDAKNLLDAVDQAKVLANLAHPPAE

Work on `CNC(=O)c1cc(Oc2ccc(NC(=O)Nc3ccc(Cl)c(C(F)(F)F)c3)cc2)ccn1` yielded a per cent of control (MAPK8 (human)) of 88%, a per cent of control (PTK2B (human)) of 99% and a per cent of control [1] of 42%. It also gave a per cent of control (MAPKAPK2 (human)) of 91%, a per cent of control (CLK3 (human)) of 84% and a per cent of control (MARK1 (human)) of 90%. The per cent of control (SBK1 (human)) was 100%, the per cent of control (MAPK6 (human)) was 94% and the per cent of control (NIM1 (human)) was 100%. For the same compound, the per cent of control (STK25 (human)) was 100%, the per cent of control (CDC42BPA (human)) was 96% and the per cent of control (WEE1 (human)) was 100%. The per cent of control (MARK3 (human)) was 86%, the per cent of control (DYRK2 (human)) was 60% and the per cent of control (ACVR1 (human)) was 100%. The per cent of control (CHEK2 (human)) was 63%, the per cent of control (LATS1 (human)) was 79% and the per cent of control (HIPK4 (human)) was 4.5%. The per cent of control (MAP3K13 (human)) was 88%, the per cent of control (EPHB1 (human)) was 18% and the per cent of control (MINK1 (human)) was 80%. The per cent of control (MAP3K7 (human)) was 2.6%, the per cent of control (OXSR1 (human)) was 100% and the per cent of control (CDK4 CCND3 (human)) was 100%. For the same compound, the per cent of control (MAP3K1 (human)) was 89%, the per cent of control (CAMK2G (human)) was 100% and the per cent of control (MAPK7 (human)) was 81%. For the same compound, the per cent of control [2] was 0%, the per cent of control (MAP2K2 (human)) was 88% and the per cent of control (IGF1R (human)) was 100%. The per cent of control (TNK1 (human)) was 14%, the per cent of control (DAPK1 (human)) was 95% and the per cent of control (MARK2 (human)) was 67%. It also gave a per cent of control (IRAK1 (human)) of 76%, a per cent of control (ULK3 (human)) of 100% and a per cent of control (MAP4K2 (human)) of 93%. It also gave a per cent of control (BRSK1 (human)) of 100%, a per cent of control (PRKCI (human)) of 100% and a per cent of control (EPHA6 (human)) of 1.6%. The per cent of control (PRKCD (human)) was 100% and the per cent of control (EPHA5 (human)) was 16%.
For `CNC(=O)c1cc(Oc2ccc(NC(=O)Nc3ccc(Cl)c(C(F)(F)F)c3)cc2)cc[n+]1[O-]`, the per cent of control (MAPK8 (human)) was 13%, the per cent of control (PTK2B (human)) was 91% and the per cent of control [1] was 50%. The per cent of control (MAPKAPK2 (human)) was 100%, the per cent of control (CLK3 (human)) was 100% and the per cent of control (MARK1 (human)) was 100%. The per cent of control (SBK1 (human)) was 100%, the per cent of control (MAPK6 (human)) was 100% and the per cent of control (NIM1 (human)) was 100%. The per cent of control (STK25 (human)) was 32%, the per cent of control (CDC42BPA (human)) was 90% and the per cent of control (WEE1 (human)) was 100%. It also gave a per cent of control (MARK3 (human)) of 86%, a per cent of control (DYRK2 (human)) of 26% and a per cent of control (ACVR1 (human)) of 100%. The per cent of control (CHEK2 (human)) was 21%, the per cent of control (LATS1 (human)) was 53% and the per cent of control (HIPK4 (human)) was 2.3%. For the same compound, the per cent of control (MAP3K13 (human)) was 68%, the per cent of control (EPHB1 (human)) was 20% and the per cent of control (MINK1 (human)) was 2.4%. The per cent of control (MAP3K7 (human)) was 2.9%, the per cent of control (OXSR1 (human)) was 100% and the per cent of control (CDK4 CCND3 (human)) was 62%. It also gave a per cent of control (MAP3K1 (human)) of 100%, a per cent of control (CAMK2G (human)) of 96% and a per cent of control (MAPK7 (human)) of 65%. The per cent of control [2] was 0%, the per cent of control (MAP2K2 (human)) was 84% and the per cent of control (IGF1R (human)) was 97%. The per cent of control (TNK1 (human)) was 6.6%, the per cent of control (DAPK1 (human)) was 85% and the per cent of control (MARK2 (human)) was 87%. The per cent of control (IRAK1 (human)) was 22%, the per cent of control (ULK3 (human)) was 82% and the per cent of control (MAP4K2 (human)) was 66%. For the same compound, the per cent of control (BRSK1 (human)) was 76%, the per cent of control (PRKCI (human)) was 100% and the per cent of control (EPHA6 (human)) was 6.6%. The per cent of control (PRKCD (human)) was 100% and the per cent of control (EPHA5 (human)) was 15%.
